Measurements: US20250228882A1, “ORALLY-BIOAVAILABLE NUCLEOSIDE ANALOGS” (Venatorx Pharmaceuticals, Inc., priority 2022, published 2025)
Read-outs that look alike come from different tables or passages of the source.

Experiments:
[1] = Stability in human fasted-state simulated gastric fluid and fasted-state simulated intestinal fluid; type: physicochemical; conditions: timepoints 0-120 min
Experimental: The chemical stability of example compounds was determined using human fasted-state simulated gastric fluid, and fasted-state simulated intestinal fluid, prepared as follows.
• Weigh 1.0 g NaCl and dissolved it in 0.49 L water • Adjust pH value to 1.2, and adjust volume to 0.5 L in water • Filter the NaCl/HCl buffer through a 0.22 μm filter • Weigh 3.0 mg FaSSGF powder (Vendor: Biorelevant, catalog #FFF01), dissolve it in 50 mL NaCl/HCl buffer • Dissolve the FaSSGF powder in NaCl/HCl buffer and make up the volume to 50 mL • Store at 4° C. for future use.
• Weigh 0.695 g NaOH, 1.115 g maleic acid and 2.005 g NaCl, and dissolve in 0.49 L water • Adjusted the pH value to 6.8 and adjust volume to 0.5 L with water • Filter the maleic acid buffer through a 0.22 μm filter • Weigh 89.5 mg FaSSIF-V2 powder (Vendor: Biorelevant catalog #V2FAS01), dissolve in 50 mL maleic buffer • Dissolve the FaSSIF-V2 powder in maleic buffer and make up the volume to 50 mL • Store at 4° C. for future use.
Briefly, test compounds were prepared as 50 μM working solutions in DMSO, and 2 μL test compound working solution was added to 98 μL of each buffer respectively in six tubes (for six timepoints, 0, 5, 15, 30, 60, and 120 min) and gently mixed. At each corresponding timepoint, the reaction was stopped by addition of 300 μL of quenching solution (methanol solution of 5 ng/mL terfenadine and 10 ng/mL of tolbutamide). Each tube was vortexed for 1 min, centrifuged at 4,000 rpm at 4° C. for 15 min, then 200 μL of supernatant was removed. The half-life of each example compound was determined using LC-MS/MS analysis, using the internal standards present in the quenching solution.

[2] = Bidirectional Caco-2 permeability assay; type: in vitro ADME; conditions: human, Caco-2
In short: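 Caco-2 monolayers (passage 39, 19-day culture, TEER >600 Ohms/cm^2) dosed A→B and B→A in duplicate, 90 min at 37 °C without shaking. Donor and receiver samples at 10 and 90 min quantified by LC/MS/MS. Papp (cm/s), efflux ratio and recovery calculated; ER >2 flags potential efflux substrate.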

[3] = fasted-state simulated gastric fluid (FaSSGF), human fasted-state simulated gastric fluid, pH 1.2, LC-MS/MS, read-out: FaSSGF t1/2
[4] = human fasted-state simulated intestinal fluid (FaSSIF-V2), pH 6.8, LC-MS/MS, read-out: FaSSIF t1/2

| Compound | half-life at 1 µM [1, 3] | half-life at 1 µM [1, 4] | Papp A→B at 90 min [2] | Papp B→A at 90 min [2] | efflux ratio at 90 min [2] |
| --- | --- | --- | --- | --- | --- |
| CCCC(=O)Nc1ncnn2c([C@]3(C#N)O[C@H](COC(=O)CC4CCCCC4)[C@@H](OC(=O)[C@@H](N)C(C)(C)C)[C@H]3O)ccc12 [Compound 1, (2R,3S,4R,5R)-5-(4-butyramidopyrrolo[2,1-f][1,2,4]triazin-7-yl)-5-cyano-2-((2-cyclohexylacetoxy)methyl)-4-hydroxytetrahydrofuran-3-yl (S)-2-amino-3,3-dimethylbutanoate] | 1.61 h | > 6.22 h | 6.8 ×10⁻⁶ cm/s | 8.72 ×10⁻⁶ cm/s | 1.28 |
| CCC(CC)C(=O)Nc1ncnn2c([C@]3(C#N)O[C@H](COC(=O)CC4CCCCC4)[C@@H](OC(=O)[C@@H](N)C(C)(C)C)[C@H]3O)ccc12 [Compound 2, (2R,3S,4R,5R)-5-cyano-2-((2-cyclohexylacetoxy)methyl)-5-(4-(2-ethylbutanamido)pyrrolo[2,1-f][1,2,4]triazin-7-yl)-4-hydroxytetrahydrofuran-3-yl (S)-2-amino-3,3-dimethylbutanoate] | > 6.22 h | > 6.22 h | 4.08 ×10⁻⁶ cm/s | 6.13 ×10⁻⁶ cm/s | 1.5 |
| COC(C)(C)C(=O)Nc1ncnn2c([C@]3(C#N)O[C@H](COC(=O)CC4CCCCC4)[C@@H](OC(=O)[C@@H](N)C(C)(C)C)[C@H]3O)ccc12 [Compound 3, (2R,3S,4R,5R)-5-cyano-2-((2-cyclohexylacetoxy)methyl)-4-hydroxy-5-(4-(2-methoxy-2-methylpropanamido)pyrrolo[2,1-f][1,2,4]triazin-7-yl)tetrahydrofuran-3-yl (S)-2-amino-3,3-dimethylbutanoate] | 0.347 h | > 6.22 h | 8.49 ×10⁻⁶ cm/s | 9.3 ×10⁻⁶ cm/s | 1.1 |
| CC(C)(C)[C@@H](N)C(=O)OC[C@H]1O[C@@](C#N)(c2ccc3c(N)ncnn23)[C@H](O)[C@@H]1OC(=O)CC1CCCCC1 [Compound 37, ((2R,3S,4R,5R)-5-(4-aminopyrrolo[2,1-f][1,2,4]triazin-7-yl)-5-cyano-3-(2-cyclohexylacetoxy)-4-hydroxytetrahydrofuran-2-yl)methyl (R)-2-amino-3,3-dimethylbutanoate] | > 6.21 h | > 6.21 h | – | – | 2.95 |
| CCC(CC)C(=O)Nc1ncnn2c([C@]3(C#N)O[C@H](COC(=O)CC4CCCCCC4)[C@@H](OC(=O)[C@H](N)C(C)(C)C)[C@H]3O)ccc12 [Compound 77, (2R,3S,4R,5R)-5-cyano-2-((2-cycloheptylacetoxy)methyl)-5-(4-(2-ethylbutanamido)pyrrolo[2,1-f][1,2,4]triazin-7-yl)-4-hydroxytetrahydrofuran-3-yl (R)-2-amino-3,3-dimethylbutanoate] | – | – | 1 ×10⁻⁶ cm/s | 1.6 ×10⁻⁶ cm/s | 1.7 |
